The assay deals with T1, Nav1.8 (Homo sapiens, UniProt Q9Y5Y9).
T1 construct: gene SCN10A
In words: whole-cell patch clamp of Nav1.[…] + FHF4A in ND7/[…] cells ([…] TTX), […] h pre-incubation; transient current. The assay is classed as cell-based. On the technique in general: The patch-clamp technique gives a direct electrical read-out from membranes.

Peptide text beside a SMILES is read from it. * marks the point of attachment. Cbz = O=C(OCc1ccccc1)*; Boc = CC(C)(C)OC(=O)*

T1 sequence (Q9Y5Y9 whole entry, looked up): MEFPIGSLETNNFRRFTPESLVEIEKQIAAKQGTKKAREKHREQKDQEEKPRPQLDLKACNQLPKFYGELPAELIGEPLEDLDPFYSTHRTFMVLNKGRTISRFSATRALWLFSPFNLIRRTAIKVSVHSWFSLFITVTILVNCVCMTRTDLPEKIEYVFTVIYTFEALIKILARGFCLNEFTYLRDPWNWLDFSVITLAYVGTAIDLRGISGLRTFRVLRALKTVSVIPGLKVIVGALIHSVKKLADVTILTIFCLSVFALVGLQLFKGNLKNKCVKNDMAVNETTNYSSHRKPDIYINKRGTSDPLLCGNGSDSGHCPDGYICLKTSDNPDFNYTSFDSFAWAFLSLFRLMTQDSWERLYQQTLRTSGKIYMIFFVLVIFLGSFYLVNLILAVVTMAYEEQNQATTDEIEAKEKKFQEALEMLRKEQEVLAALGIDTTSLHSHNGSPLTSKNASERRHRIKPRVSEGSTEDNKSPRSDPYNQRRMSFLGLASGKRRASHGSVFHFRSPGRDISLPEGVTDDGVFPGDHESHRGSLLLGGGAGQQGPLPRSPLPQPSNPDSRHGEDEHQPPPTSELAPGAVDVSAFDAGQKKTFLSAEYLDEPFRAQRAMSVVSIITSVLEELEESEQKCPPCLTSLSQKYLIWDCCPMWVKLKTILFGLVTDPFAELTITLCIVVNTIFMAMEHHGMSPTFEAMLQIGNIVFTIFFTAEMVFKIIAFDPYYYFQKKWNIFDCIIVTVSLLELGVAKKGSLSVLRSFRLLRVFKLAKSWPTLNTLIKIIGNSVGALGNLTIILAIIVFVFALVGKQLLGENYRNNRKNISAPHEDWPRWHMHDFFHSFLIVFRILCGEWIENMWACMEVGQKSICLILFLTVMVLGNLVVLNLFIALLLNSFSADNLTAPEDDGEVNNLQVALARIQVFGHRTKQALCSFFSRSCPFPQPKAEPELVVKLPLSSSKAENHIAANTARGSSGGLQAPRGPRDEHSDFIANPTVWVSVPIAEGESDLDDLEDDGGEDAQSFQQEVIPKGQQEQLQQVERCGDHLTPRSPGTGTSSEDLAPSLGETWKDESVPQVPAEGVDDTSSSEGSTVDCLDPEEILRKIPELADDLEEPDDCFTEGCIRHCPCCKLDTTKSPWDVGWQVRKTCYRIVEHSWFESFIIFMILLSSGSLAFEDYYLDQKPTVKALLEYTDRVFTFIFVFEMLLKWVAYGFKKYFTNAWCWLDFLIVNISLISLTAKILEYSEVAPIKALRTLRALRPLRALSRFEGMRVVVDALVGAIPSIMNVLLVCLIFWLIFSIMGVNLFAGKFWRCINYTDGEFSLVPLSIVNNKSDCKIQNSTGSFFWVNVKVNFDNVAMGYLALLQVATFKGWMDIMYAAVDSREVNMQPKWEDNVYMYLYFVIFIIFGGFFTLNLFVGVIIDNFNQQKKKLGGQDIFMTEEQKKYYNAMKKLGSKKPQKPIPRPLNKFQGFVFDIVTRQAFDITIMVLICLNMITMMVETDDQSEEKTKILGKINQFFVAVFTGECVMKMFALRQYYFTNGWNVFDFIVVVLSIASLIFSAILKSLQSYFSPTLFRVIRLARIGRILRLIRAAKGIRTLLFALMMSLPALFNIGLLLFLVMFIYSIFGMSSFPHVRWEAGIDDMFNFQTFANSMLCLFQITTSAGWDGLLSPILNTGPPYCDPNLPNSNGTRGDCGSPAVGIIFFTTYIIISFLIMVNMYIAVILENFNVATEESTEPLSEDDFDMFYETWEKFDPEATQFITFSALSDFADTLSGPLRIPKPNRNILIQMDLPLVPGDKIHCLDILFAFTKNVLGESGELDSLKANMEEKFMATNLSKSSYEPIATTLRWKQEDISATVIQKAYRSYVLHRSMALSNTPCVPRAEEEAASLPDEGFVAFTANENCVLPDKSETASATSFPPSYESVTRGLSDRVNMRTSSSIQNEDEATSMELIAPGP

With `CC(C)C[C@H](NC(=O)[C@H](Cc1ccccc1)NC(=O)OCc1ccccc1)C(=O)N1CCC[C@H]1C(=O)N[C@@H](CCCCNC(=O)OC(C)(C)C)C(N)=O` [ZL0177] (Cbz-FLPK(Boc)-NH2), the IC50 was roughly 19.5 µM.

As a reminder, the IC50 is the concentration that gives 50% inhibition.

Values taken from article PMC12487594, “Contusive spinal cord injury causes Nav1.8 dysfunction to upregulate small sensory neuron excitability” (The Journal of Physiology, 2025).
